For data set [1], the system named is NCTC clone 1469 cells. The settings on record: mouse, pH 7.3.
Data set [2] relates to NCTC clone 1469 cells. As to the kind of experiment: Cytotoxicity control of the treated fabric test. In kind it is cell-based, mouse. The settings on record: Formaldehyde control.
Method: Controls were untreated fabric pieces of the same size. After incubation with the virus for 15, 30 or 60 minutes the samples were neutralized with D/E broth, vortexed to remove the virus from the fabric and passed over a Sephadex LH-20 column to remove potential cytotoxic substances. Serial dilutions of the column eluates were used to inoculate NCTC clone 1469 cells in a 96 well plate to determine the TCID50 for the virus at each time. After 14 days the wells were examined for cytopathological effects (CPE) in the cells and scored accordingly.

Each structure is given as a SMILES string. Read-outs that look alike come from different tables or passages of the source.

`C=O` [Formaldehyde]: the “dilution to which all cells were killed” value is listed as “killed all cells to the 10^4 dilution” in data set [1] and “killed all cells to the 10^−2 dilution” in data set [2].

The record behind these values is patent US20210395652A1, “TEXTILE TREATMENT COMPOSITIONS” (priority 2020, published 2021).
